Data: article PMC10776687 (Nature Communications, 2024)

Key:
Type in all cases: cell-based
[1] = molecular target: T1, human serotonin transporter (SERT) (Homo sapiens, UniProt P31645); assay: [3H]5HT uptake inhibition in HEK293 cells; whole-cell patch clamp (partial substrate, kon/koff); efflux
T1 construct: gene SLC6A4; human WT SERT, N-terminal eYFP fusion, stably expressed in HEK293 cells

[2] = molecular target: T1, human serotonin transporter (SERT); assay: [3H]5HT uptake kinetics (Km/Vmax) in HEK293 cells at the compound's IC50, n = […]
[3] = molecular target: T1, human serotonin transporter (SERT); assay: [3H]5HT uptake inhibition in HEK293 cells; whole-cell patch clamp (almost pure inhibitor)
[4] = molecular target: T1, human serotonin transporter (SERT); assay: [3H]5HT uptake inhibition in HEK293 cells; whole-cell patch clamp (partial substrate, kon/koff)

T1 sequence (P31645 whole entry, the tested form may be a part): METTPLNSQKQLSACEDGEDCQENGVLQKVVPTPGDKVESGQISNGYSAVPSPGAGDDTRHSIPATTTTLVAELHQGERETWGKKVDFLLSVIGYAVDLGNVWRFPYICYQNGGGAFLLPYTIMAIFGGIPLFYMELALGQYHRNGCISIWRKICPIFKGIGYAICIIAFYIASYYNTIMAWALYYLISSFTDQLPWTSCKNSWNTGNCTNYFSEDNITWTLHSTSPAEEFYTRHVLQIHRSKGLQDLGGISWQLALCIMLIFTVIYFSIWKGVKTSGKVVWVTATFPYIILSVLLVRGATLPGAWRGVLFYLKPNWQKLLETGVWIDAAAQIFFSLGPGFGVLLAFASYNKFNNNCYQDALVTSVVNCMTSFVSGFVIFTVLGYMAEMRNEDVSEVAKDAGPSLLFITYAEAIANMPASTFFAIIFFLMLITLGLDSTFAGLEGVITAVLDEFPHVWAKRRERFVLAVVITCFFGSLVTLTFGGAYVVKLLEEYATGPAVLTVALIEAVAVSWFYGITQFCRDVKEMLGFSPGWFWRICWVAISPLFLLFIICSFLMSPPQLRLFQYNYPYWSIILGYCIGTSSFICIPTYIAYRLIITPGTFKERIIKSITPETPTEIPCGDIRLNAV

NCCCc1c[nH]c2ccc(O)cc12 [P-5HT, propyl (P)-5HT]
IC50 [1]: 590 nM

COC(=O)[C@H]1[C@@H](OC(=O)c2ccccc2)C[C@@H]2CC[C@H]1N2C [COC, cocaine]
IC50 [2]: 4000 nM

CC[C@H]1C[C@@H]2C[C@H]3c4[nH]c5ccc(OC)cc5c4CCN(C2)[C@@H]13 [IBO, ibogaine]
IC50 [2]: 24000 nM

NCc1c[nH]c2ccc(O)cc12 [M-5HT]
IC50 [3]: 79300 nM

NCCCCc1c[nH]c2ccc(O)cc12 [B-5HT, butyl (B)-5HT]
IC50 [4]: 270 nM
